Measurements from article PMC9516332 (Frontiers in Oncology, 2022).
Where two headings read alike, the source gives them in different places.

Legend:
Assay in all cases: Kinase panel profiling at 1 µmol/L (MSA or IMAP), percentage inhibition
Type in all cases: biochemical
[1] = target: panel of 255 wild-type kinases (Homo sapiens, UniProt Q00534); details: read-out: %-inhibition CDK6/CycD3
[2] = target: panel of 255 wild-type kinases (Homo sapiens, UniProt Q96SB4); details: read-out: %-inhibition at 1 µmol/L, SRPK1
[3] = target: panel of 255 wild-type kinases (Homo sapiens, UniProt P50613); details: read-out: %-inhibition CDK7/CycH/MAT1
[4] = target: panel of 255 wild-type kinases (Homo sapiens, UniProt P48730); details: read-out: %-inhibition at 1 µmol/L, CK1δ
[5] = target: panel of 255 wild-type kinases (Homo sapiens, UniProt P57059); details: read-out: %-inhibition at 1 µmol/L, SIK
[6] = target: panel of 255 wild-type kinases (Homo sapiens, UniProt O94804); details: read-out: %-inhibition at 1 µmol/L, LOK
[7] = target: panel of 255 wild-type kinases (Homo sapiens, UniProt P54646); details: read-out: %-inhibition AMPKα2/β1/γ1
[8] = target: panel of 255 wild-type kinases (Homo sapiens, UniProt P43405); details: read-out: %-inhibition at 1 µmol/L, SYK
[9] = target: panel of 255 wild-type kinases (Homo sapiens, UniProt P08922); details: read-out: %-inhibition at 1 µmol/L, ROS
[10] = target: panel of 255 wild-type kinases (Homo sapiens, UniProt Q9H4A3); details: read-out: %-inhibition at 1 µmol/L, WNK1
[11] = target: panel of 255 wild-type kinases (Homo sapiens, UniProt Q07912); details: read-out: %-inhibition ACK
[12] = target: panel of 255 wild-type kinases (Homo sapiens, UniProt P05129); details: read-out: %-inhibition at 1 µmol/L, PKCγ
[13] = target: T1, panel of 255 wild-type kinases (Homo sapiens, UniProt Q13237); details: read-out: %-inhibition CGK2
T1 sequence (Q13237 1-762): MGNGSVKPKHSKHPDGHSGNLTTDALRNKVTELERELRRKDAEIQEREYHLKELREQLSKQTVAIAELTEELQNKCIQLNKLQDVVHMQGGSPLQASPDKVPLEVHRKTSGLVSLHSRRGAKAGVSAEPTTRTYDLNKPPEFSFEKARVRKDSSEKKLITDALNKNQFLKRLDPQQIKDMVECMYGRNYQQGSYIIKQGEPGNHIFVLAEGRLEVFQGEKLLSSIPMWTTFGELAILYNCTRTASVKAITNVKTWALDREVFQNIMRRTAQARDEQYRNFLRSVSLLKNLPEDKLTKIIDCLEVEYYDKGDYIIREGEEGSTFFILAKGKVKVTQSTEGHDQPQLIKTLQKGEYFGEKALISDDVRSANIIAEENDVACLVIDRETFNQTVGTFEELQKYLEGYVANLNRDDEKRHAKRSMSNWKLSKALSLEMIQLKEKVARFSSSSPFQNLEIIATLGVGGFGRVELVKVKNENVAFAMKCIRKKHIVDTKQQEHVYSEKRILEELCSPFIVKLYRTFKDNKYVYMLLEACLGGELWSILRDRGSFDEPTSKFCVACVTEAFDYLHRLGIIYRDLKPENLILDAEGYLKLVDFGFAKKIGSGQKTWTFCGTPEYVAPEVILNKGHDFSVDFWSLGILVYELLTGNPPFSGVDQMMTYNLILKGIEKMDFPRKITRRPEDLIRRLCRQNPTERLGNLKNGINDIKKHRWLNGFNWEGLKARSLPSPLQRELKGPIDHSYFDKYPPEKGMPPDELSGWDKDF

[14] = target: T2, panel of 255 wild-type kinases (Homo sapiens, UniProt O15146); details: read-out: %-inhibition, MUSK
T2 sequence (O15146 24-869): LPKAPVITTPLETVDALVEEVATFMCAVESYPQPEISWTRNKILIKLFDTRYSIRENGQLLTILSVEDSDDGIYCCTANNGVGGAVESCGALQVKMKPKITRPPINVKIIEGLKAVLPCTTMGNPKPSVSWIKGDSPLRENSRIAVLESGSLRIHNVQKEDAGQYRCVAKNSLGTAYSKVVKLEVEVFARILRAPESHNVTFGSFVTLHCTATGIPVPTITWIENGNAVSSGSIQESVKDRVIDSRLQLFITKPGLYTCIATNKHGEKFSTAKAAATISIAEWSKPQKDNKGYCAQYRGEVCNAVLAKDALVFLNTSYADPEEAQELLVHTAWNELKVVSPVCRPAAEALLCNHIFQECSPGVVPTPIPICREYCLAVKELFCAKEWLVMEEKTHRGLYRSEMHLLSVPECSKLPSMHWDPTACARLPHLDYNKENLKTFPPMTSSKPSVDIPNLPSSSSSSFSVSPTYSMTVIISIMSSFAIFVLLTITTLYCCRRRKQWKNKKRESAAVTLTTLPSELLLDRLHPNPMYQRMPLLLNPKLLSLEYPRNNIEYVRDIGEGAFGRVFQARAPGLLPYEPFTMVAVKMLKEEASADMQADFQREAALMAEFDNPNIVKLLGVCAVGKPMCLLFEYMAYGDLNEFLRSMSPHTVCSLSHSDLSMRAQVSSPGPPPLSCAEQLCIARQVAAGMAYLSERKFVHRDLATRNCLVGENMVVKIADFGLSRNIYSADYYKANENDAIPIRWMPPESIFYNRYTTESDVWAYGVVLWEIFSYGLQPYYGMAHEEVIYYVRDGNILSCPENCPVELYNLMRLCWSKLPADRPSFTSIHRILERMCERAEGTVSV

[15] = CDK6/CycD3 kinase assay, 1 µmol/L single concentration
[16] = kinase SRPK1, 1 µmol/L single concentration
[17] = CDK7/CycH/MAT1 kinase assay, 1 µmol/L single concentration
[18] = kinase CK1δ, 1 µmol/L single concentration
[19] = kinase SIK, 1 µmol/L single concentration
[20] = kinase LOK, 1 µmol/L single concentration
[21] = AMPKα2/β1/γ1 kinase assay, 1 µmol/L single concentration
[22] = kinase SYK, 1 µmol/L single concentration
[23] = kinase ROS, 1 µmol/L single concentration
[24] = kinase WNK1, 1 µmol/L single concentration
[25] = ACK kinase assay, 1 µmol/L single concentration
[26] = kinase PKCγ, 1 µmol/L single concentration
[27] = CGK2 kinase assay, 1 µmol/L single concentration
[28] = MUSK, 1 µmol/L single concentration

inhibition at 1 µM [1, 15] [%] | inhibition at 1 µM [2, 16] [%] | inhibition at 1 µM [3, 17] [%] | inhibition at 1 µM [4, 18] [%] | inhibition at 1 µM [5, 19] [%] | inhibition at 1 µM [6, 20] [%] | inhibition at 1 µM [7, 21] [%] | inhibition at 1 µM [8, 22] [%] | inhibition at 1 µM [9, 23] [%] | inhibition at 1 µM [10, 24] [%] | inhibition at 1 µM [11, 25] [%] | inhibition at 1 µM [12, 26] [%] | inhibition at 1 µM [13, 27] [%] | inhibition at 1 µM [14, 28] [%] | SMILES | other results
-3.49 | 6 | 1.7 | -1.44 | -3 | 5 | 1.9 | -12 | 15 | -2.62 | 0.731 | -0.133 | -1.64 | 7 | Cn1cnc2c(F)c(Nc3ccc(Br)cc3Cl)c(C(=O)NOCCO)cc21 [selumetinib] | –
0.675 | -9 | 6 | -1.7 | 9 | 40 | 28 | 7.5 | 64 | -10 | 4.48 | -0.427 | 16 | 10 | COc1ccc(CN2C3CC2CN(c2ccc(-c4cc(OCC(C)(C)O)cn5ncc(C#N)c45)cn2)C3)cn1 [selpercatinib] | –
-0.0563 | -12 | -8 | -8 | -1.7 | 5.3 | -6 | -8 | – | -4.49 | 52 | -1.62 | -0.443 | 32 | O=C(Nc1cnn2ccc(N3CCC[C@@H]3c3cc(F)ccc3F)nc12)N1CC[C@H](O)C1 [larotrectinib] | inhibition at 1 µM [9]: 86%
1.75 | 4 | -5.41 | -4.49 | -1.9 | 0.582 | -0.155 | -2.35 | -3.53 | -3 | 2.28 | -4.38 | -0.775 | -4.45 | C[C@H](Nc1ncnc2nc[nH]c12)c1cc2cccc(Cl)c2c(=O)n1-c1ccccc1 [duvelisib] | –
-1.2 | -4 | 19 | 0.94 | 1.69 | 13 | 83 | 85 | 94 | -2.67 | 84 | 1.41 | 25 | 73 | CO[C@]1(C(=O)N[C@@H](C)c2ccc(-n3cc(F)cn3)nc2)CC[C@H](c2nc(C)cc(Nc3cc(C)[nH]n3)n2)CC1 [pralsetinib] | –

The remaining lines, values behind:

SMILES | inhibition at 1 µM [1, 15] [%] | inhibition at 1 µM [2, 16] [%] | inhibition at 1 µM [3, 17] [%] | inhibition at 1 µM [4, 18] [%] | inhibition at 1 µM [5, 19] [%] | inhibition at 1 µM [6, 20] [%] | inhibition at 1 µM [7, 21] [%] | inhibition at 1 µM [8, 22] [%] | inhibition at 1 µM [9, 23] [%] | inhibition at 1 µM [10, 24] [%] | inhibition at 1 µM [11, 25] [%] | inhibition at 1 µM [12, 26] [%] | inhibition at 1 µM [13, 27] [%] | inhibition at 1 µM [14, 28] [%] | other results
CCN1C(=O)N(c2c(F)c(OC)cc(OC)c2F)Cc2cnc3[nH]c(CN4CCOCC4)cc3c21 [pemigatinib] | 48 | -12 | -12 | -4.55 | 22 | 4.7 | -5 | -4.26 | 3.74 | -3.59 | 4.32 | -0.948 | 1.58 | 2.72 | –
CNC(=O)c1ccc(-c2cnc3ncc(Cc4ccc5ncccc5c4)n3n2)cc1F [capmatinib] | – | – | – | – | – | – | – | – | – | – | – | – | – | – | inhibition at 1 µM [1]: -1.65%; inhibition at 1 µM [2]: -6%; inhibition at 1 µM [3]: -0.376%; inhibition at 1 µM [4]: -1.78%; inhibition at 1 µM [5]: -6.33%; inhibition at 1 µM [6]: 0.859%; inhibition at 1 µM [7]: -1.21%; inhibition at 1 µM [8]: 2.11%; inhibition at 1 µM [9]: 21%; inhibition at 1 µM [10]: -5%; inhibition at 1 µM [11]: 1%; inhibition at 1 µM [12]: 0.161%; inhibition at 1 µM [13]: -1.13%; inhibition at 1 µM [14]: 1.33%
FC(F)(F)c1ccc(CNc2ccc(Cc3c[nH]c4ncc(Cl)cc34)cn2)cn1 [pexidartinib] | -6.52 | -20 | 22 | -3.46 | 9 | 25 | -7 | -6 | 37 | -1.24 | 12 | 4.68 | 17 | 33 | –
C[C@H]1Oc2cc(cnc2N)-c2c(nn(C)c2C#N)CN(C)C(=O)c2ccc(F)cc21 [lorlatinib] | 2.65 | 5.65 | – | -6.46 | -1.87 | 87 | 2.22 | 16 | 101 | 0.826 | – | -3.74 | -3 | 47 | –
CN1CCN(c2ccc(C(=O)Nc3n[nH]c4ccc(Cc5cc(F)cc(F)c5)cc34)c(NC3CCOCC3)c2)CC1 [entrectinib] | 1.6 | 2.16 | 27 | -5 | 7.49 | 28 | 79 | -5.27 | – | -2.18 | – | 1 | 4.42 | 100 | –
